# Source: US6538001B1, “Crystalline modification of 5-fluoro-1-(tetrahydro-2-furyl) uracil and complex compounds based thereon, producing antineoplastic effect” (priority 2001, dated 2003)
# Key:
# [1] = tested on: uterine neck cancer cells; test: Cytotoxicity (MTT) on a culture of uterine neck cancer cells; format: cell-based; design: Effect on the proliferation of cancer cells: dose or concentration left out as unconfirmed; conditions: for Optical density at 540 nm: 4 days
# Experimental: The determination was carried out by following the known procedure (Mosmann N. T., J. Immunology Methods, 1983, vol. 65, 55-63, Carmichel J. et al., Cancer Res., 1987, vol. 47, 936-946) on a culture of uterine neck cancer cells. The cells were grown at 37° C. on the RPMI 1640 medium with additives of a 10%embryonal serum of cows and 200 u/ml of gentamicin. CO2 content in the incubator atmosphere was 10%. The cells which were in the exponential phase of growth were suspended with trypsin and inoculated in an amount of 4×10^3 into each socket of a 96-socket dish for monolayer cultures. Solutions of samples of the preparations to be investigated were prepared by dissolving 23 mg of each preparation in 10 ml of a culture broth, 10^−2 M solutions being thus obtained. These were starting solutions for obtaining solutions of a lower concentration by diluting them with the culture broth. Directly before adding the solutions to the cells, these solutions were sterilized by filtering through millipore filters. One day after the inoculation of the cells, solutions of samples of the preparations to be investigated in prescribed concentrations were added into each socket of the dish. After that the cells grew for another 4 days.
# All in all, 9 concentrations of each of the 4 samples of the investigated preparations were tested.
# Quantitative estimation of the cytotoxicity of the investigated preparations was carried out with the use of 3-(4,5-dimethylthiazol-2-yl)-2,5-diphenyltetrazolium bromide (MTT). […] 0.5 mg/ml was added into each socket of the dish 4 hours before the completion of cells cultivation. On completion of the incubation, the culture broth was removed from the dish sockets, the formasane crystals were dissolved, and the cells were scanned on an automatic Multiscan MCC/340P reader at the 540 nm wavelength. The results were calculated in percent of the cells subjected to the effect of the investigated preparations, absorbed at 540 nm, as against the absorption of control cells.
# The action of each concentration of the investigated preparations on cancer cells was estimated from the results of 4-6 independent experiments, treated by methods of mathematical statistics.
# [2] = Determination of solubility (USP XXIII article Solubility); format: physicochemical
# Experimental: The solubility was determined in accordance with the requirements set out in the article “Solubility”, USPXXTIII (1995, p. 2071).
smiles,measurement,setting,value
"O=c1[nH]c(=O)n(C2CCCO2)cc1F (stereo not drawn) [Form V of tegafur, 5-fluoro-1-(tetrahydro-2-furyl)uracil]",Optical density at 540 nm,"[1]; 5 × 10^−3 M (on conversion to tegafur), MTT",0.25 ± 0.02
same,Optical density at 540 nm,"[1]; 5 × 10^−4 M (on conversion to tegafur), MTT",0.44 ± 0.05
same,Optical density at 540 nm,"[1]; 5 × 10^−5 M (on conversion to tegafur), MTT",0.70 ± 0.03
same,Optical density at 540 nm,"[1]; 5 × 10^−6 M (on conversion to tegafur), MTT",0.73 ± 0.03
same,Optical density at 540 nm,"[1]; 10^−2 M (on conversion to tegafur), MTT",0.16 ± 0.01
same,Optical density at 540 nm,"[1]; 10^−3 M (on conversion to tegafur), MTT",0.35 ± 0.02
same,Optical density at 540 nm,"[1]; 10^−4 M (on conversion to tegafur), MTT",0.56 ± 0.06
same,Optical density at 540 nm,"[1]; 10^−5 M (on conversion to tegafur), MTT",0.73 ± 0.08
same,Optical density at 540 nm,"[1]; 10^−6 M (on conversion to tegafur), MTT",0.79 ± 0.08
same,Inhibition of proliferation more intensive than tegafur,"[1]; at the concentration of 10^−4 M, relative to tegafur",70%
same,Concentration at which the proliferation of cells is inhibited,"[1]; uterine neck cancer cells, MTT",50 µM
same,Solubility compared with pharmacopeial tegafur,[2]; in words,higher than the solubility of pharmacopeial tegafur
same,"Solubility, % with respect to tegafur",[2]; temperature of solvent 20 °C,187.5%
"O=c1[nH]c(=O)n(C2CCCO2)cc1F (stereo not drawn) [pharmacopeial tegafur, 5-fluoro-1-(tetrahydro-2-furyl)uracil, reference compound]",Optical density at 540 nm,"[1]; 5 × 10^−3 M (on conversion to tegafur), MTT, listed as Pharmacopeial tegafur",0.28 ± 0.005
same,Optical density at 540 nm,"[1]; 5 × 10^−4 M (on conversion to tegafur), MTT, listed as Pharmacopeial tegafur",0.56 ± 0.12
same,Optical density at 540 nm,"[1]; 5 × 10^−5 M (on conversion to tegafur), MTT, listed as Pharmacopeial tegafur",0.80 ± 0.10
same,Optical density at 540 nm,"[1]; 5 × 10^−6 M (on conversion to tegafur), MTT, listed as Pharmacopeial tegafur",0.76 ± 0.08
same,Optical density at 540 nm,"[1]; 10^−2 M (on conversion to tegafur), MTT, listed as Pharmacopeial tegafur",0.26 ± 0.04
same,Optical density at 540 nm,"[1]; 10^−3 M (on conversion to tegafur), MTT, listed as Pharmacopeial tegafur",0.45 ± 0.06
same,Optical density at 540 nm,"[1]; 10^−4 M (on conversion to tegafur), MTT, listed as Pharmacopeial tegafur",0.81 ± 0.13
same,Optical density at 540 nm,"[1]; 10^−5 M (on conversion to tegafur), MTT, listed as Pharmacopeial tegafur",0.81 ± 0.09
same,Optical density at 540 nm,"[1]; 10^−6 M (on conversion to tegafur), MTT, listed as Pharmacopeial tegafur",0.76 ± 0.05
same,Effect on the proliferation of cancer cells,[1]; range of concentrations of 10^−6,does not affect the proliferation of cancer cells
same,solubility,"[2]; 20 °C, thermodynamic from solid, temperature of solvent 20 °C",8000 µg/mL
